Data: patent US7541367B2, “3-benzoimidazolyl-pyrazolopyridines useful in treating kinase disorders” (Janssen Pharmaceutica, N.V., priority 2005, dated 2009)

Columns and labels:
[1] = biological target: T1, VEGF-R2 (Rattus norvegicus, UniProt O08775); assay: VEGF-R2 kinase screening assay (33P-ATP FlashPlate); assay type: biochemical; details: rat VEGF-R2 kinase domain; 10 μM ATP; 1 hr at 30° C;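 note: Read-out is ³³P incorporation from ³³P-γ-ATP into biotinylated peptide substrate captured on streptavidin FlashPlate, counted by scintillation, 1% DMSO final, inhibition scaled between per-plate maximum and minimum signals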
T1 construct: polyhistidine (N)
T1 sequence (O08775 786-1343): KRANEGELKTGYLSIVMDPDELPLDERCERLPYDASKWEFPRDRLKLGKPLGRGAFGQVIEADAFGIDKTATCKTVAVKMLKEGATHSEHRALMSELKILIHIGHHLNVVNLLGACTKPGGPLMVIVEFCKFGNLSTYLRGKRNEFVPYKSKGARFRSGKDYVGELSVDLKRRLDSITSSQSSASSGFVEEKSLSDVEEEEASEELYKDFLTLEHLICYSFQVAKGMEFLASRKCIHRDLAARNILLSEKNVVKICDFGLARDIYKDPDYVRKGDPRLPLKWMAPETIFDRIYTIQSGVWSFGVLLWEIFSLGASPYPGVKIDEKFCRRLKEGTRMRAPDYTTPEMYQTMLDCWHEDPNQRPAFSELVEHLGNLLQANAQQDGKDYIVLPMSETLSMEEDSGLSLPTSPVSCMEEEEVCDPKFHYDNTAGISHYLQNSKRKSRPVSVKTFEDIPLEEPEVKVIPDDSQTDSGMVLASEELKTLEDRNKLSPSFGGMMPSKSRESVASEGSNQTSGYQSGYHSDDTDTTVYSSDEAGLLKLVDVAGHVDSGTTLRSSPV

[2] = biological target: T2, CDK1 (Homo sapiens, UniProt P06493); assay: CDK-1 kinase screening assay (33P-ATP FlashPlate); assay type: biochemical; details: human CDK1 with cyclin B; 10 μM ATP; 1 hr at 30° C
T2 construct: purchased New England Biolabs, Beverly, Mass; 6020; host or cells: insect cells
T2 sequence (P06493 whole entry): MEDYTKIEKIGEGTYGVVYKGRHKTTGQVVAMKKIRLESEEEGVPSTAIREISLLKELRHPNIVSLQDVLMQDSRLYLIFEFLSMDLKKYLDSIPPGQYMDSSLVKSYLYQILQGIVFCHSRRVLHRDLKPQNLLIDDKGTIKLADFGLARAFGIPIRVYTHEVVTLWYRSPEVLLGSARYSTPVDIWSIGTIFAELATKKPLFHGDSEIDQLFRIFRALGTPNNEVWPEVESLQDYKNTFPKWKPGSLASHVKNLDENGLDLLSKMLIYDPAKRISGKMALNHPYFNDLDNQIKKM
T2 sequence (P14635 whole entry partner): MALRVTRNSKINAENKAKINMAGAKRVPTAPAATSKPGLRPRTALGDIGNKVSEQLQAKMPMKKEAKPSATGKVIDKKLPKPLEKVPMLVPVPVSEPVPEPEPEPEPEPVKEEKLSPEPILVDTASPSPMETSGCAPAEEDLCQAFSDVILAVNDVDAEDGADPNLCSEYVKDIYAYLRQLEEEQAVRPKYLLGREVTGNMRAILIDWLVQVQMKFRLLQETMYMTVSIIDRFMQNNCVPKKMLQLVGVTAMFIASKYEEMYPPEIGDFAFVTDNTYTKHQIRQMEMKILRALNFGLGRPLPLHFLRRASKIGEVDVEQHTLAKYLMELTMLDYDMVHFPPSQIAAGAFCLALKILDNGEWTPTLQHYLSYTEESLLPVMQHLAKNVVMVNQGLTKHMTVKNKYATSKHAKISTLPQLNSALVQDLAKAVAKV
Description: A kinase reaction mixture was prepared containing 50 mM Tris-HCl pH=8, 10 mM MgCl2, 0.1 mM […], 1 mM DTT, 10 μM ATP, 0.025 μM biotinylated histone-H1 peptide substrate and 0.2 μCuries per well ^33P-γ-ATP (2000-3000 Ci/mmol). 70 μL of the kinase reaction mixture was dispensed into the well of a streptavidin coated FlashPlate™ (Cat. # SMP103, NEN, Boston, Mass.).
Test compound stock in 100% DMSO (1 μL) was added to the wells resulting in a final concentration of 1% DMSO in the reaction with a 100 μL final reaction volume. Each enzyme was diluted in 50 mM Tris-HCl pH=8.0, 0.11% BSA and 30 μL was added to each well to initiate the reaction. The reaction was incubated for one hour at 30° C. At the end of the 1 hr incubation, the reaction was terminated by aspirating the mixture from the plate and washing the wells twice with PBS containing 100 mM EDTA. The biotinylated peptide substrate became immobilized on the Flashplate™ and the incorporation of ^33P-γ-ATP was measured by reading the plate on a scintillation counter. Inhibition of the enzymatic activity was measured by observing a reduced amount of ^33P-γ-ATP incorporated into the immobilized peptide.
The CDK1 enzyme was isolated from insect cells expressing both the human CDK1 catalytic subunit (Accession number NM_001786) and its positive regulatory subunit cyclin B (New England Biolabs, Beverly, Mass.; Cat. # 6020). The assay used 30 ng of the N-terminal biotinylated peptide biotin-[…]-amide (Cyclin dependent kinase 1) per well.
A maximum and minimum signal for the assay was determined on each plate. The percent inhibition of a test compound was calculated according to the formula: […]
For a series of test concentrations, the IC50 was derived by graphing percent inhibition against the log of the concentrations tested for a given compound with results shown in Table 1.
For compounds with multiple values, each value represents a separate assay result.

[3] = biological target: T3, HER2 (Homo sapiens, UniProt P04626); assay: HER2 kinase screening assay (33P-ATP FlashPlate); assay type: biochemical; details: GST-HIS6 HER-2 aa 679 to 1255; 10 μM ATP; 1 hr at 30° C;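 note: Biotin-poly(GT) 4:1 peptide captured on streptavidin FlashPlate, 33P transfer from γ-ATP read by scintillation counting, lower incorporation means inhibition, 1% DMSO final, 100 µL reaction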
T3 construct: GST (Glutathione-S-Transferase) (N); HIS6 (N); thrombin cleavage site (N); purchased Proqinase, Freiburg, Germany
T3 sequence (P04626 679-1255): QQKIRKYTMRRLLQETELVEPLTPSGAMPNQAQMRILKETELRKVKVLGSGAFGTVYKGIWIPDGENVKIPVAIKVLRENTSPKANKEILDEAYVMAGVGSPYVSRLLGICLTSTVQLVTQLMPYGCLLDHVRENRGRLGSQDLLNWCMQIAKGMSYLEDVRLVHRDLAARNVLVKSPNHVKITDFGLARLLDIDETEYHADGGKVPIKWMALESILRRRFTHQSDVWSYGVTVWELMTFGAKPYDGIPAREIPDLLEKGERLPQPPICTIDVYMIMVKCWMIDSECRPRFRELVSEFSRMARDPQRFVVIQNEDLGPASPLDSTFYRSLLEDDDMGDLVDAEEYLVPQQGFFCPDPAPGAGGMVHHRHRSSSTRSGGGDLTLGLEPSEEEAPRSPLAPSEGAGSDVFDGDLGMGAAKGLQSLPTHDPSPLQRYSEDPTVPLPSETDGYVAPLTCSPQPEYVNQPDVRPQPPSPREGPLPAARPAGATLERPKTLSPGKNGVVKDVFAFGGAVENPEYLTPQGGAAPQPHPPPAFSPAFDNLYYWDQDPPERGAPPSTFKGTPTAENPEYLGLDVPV

[4] = test system: HeLa cervical adenocarcinoma; assay: Cell Proliferation Inhibition Assay (14C-thymidine incorporation), HeLa; assay type: cell-based; details: Homo sapiens, HeLa cells;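 note: test compound in DMSO added to cells seeded in scintillating 96-well plates, DMSO-only wells as control, uptake of methyl 14C-thymidine into new DNA counted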
[5] = test system: HCT-116 colon carcinoma; assay: Cell Proliferation Inhibition Assay (14C-thymidine incorporation), HCT-116; assay type: cell-based; details: Homo sapiens;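 note: proliferation measured as methyl 14C-thymidine uptake into new DNA, counted in 96-well scintillating microplates, compared with DMSO-only control wells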
[6] = test system: A375 malignant melanoma; assay: Cell Proliferation Inhibition Assay (14C-thymidine incorporation), A375; assay type: cell-based; details: Homo sapiens, A-375, A375 cells;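 note: proliferation measured by radiolabelled thymidine uptake into new DNA, counted in scintillating 96-well plates, compound-treated wells compared with DMSO-only control wells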
[7] = biological target: T4, Aurora-A (Mus musculus, UniProt P97477); assay: Aurora-A kinase screening assay (33P-ATP FlashPlate); assay type: biochemical; details: 10 μM ATP, 1 hr at 30° C;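 note: His-tagged mouse Aurora-A phosphorylating a biotinylated peptide captured on streptavidin plates, read as 33P uptake by scintillation counting, 1% DMSO, inhibition scaled between per-plate maximum and minimum signals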
T4 construct: polyhistidine (N)
T4 sequence (P97477 1-395): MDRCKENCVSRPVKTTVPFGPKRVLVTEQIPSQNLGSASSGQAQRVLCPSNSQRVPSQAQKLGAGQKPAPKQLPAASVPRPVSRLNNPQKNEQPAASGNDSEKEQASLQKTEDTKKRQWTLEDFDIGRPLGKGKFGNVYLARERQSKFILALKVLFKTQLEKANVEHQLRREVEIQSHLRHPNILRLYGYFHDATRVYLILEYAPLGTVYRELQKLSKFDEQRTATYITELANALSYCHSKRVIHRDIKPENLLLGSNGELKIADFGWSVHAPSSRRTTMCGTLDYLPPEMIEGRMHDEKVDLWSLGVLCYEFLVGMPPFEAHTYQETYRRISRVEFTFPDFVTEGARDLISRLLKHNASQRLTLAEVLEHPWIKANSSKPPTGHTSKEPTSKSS

| IC50 [1] [nM] | IC50 [2] [nM] | IC50 [3] [nM] | IC50 ([4]; HeLa) [nM] | IC50 ([5]; HCT-116, HCT-116 cells) [nM] | IC50 [6] [nM] | IC50 [7] [nM] | Structure (SMILES) | IC50 [4] [nM] | IC50 ([5]; HCT-116 cells) [nM] |
| --- | --- | --- | --- | --- | --- | --- | --- | --- | --- |
| 238 | 425 | > 10000 | 3100 | 2500 | 1700 | ~1000 | CN1CCN(c2ccc3[nH]c(-c4n[nH]c5ncc(Br)cc45)nc3c2)CC1 [Cpd 30, 5-bromo-3-[5-(4-methyl-piperazin-1-yl)-1H-benzoimidazol-2-yl]-1H-pyrazolo[3,4-b]pyridine] |  |  |
| 160 | 29.3 | > 100000 | 650 | 18.8 | 32.8 | > 1000 | COCc1cccc2[nH]c(-c3n[nH]c4ncc(-c5cccnc5)cc34)nc12 [Cpd 35, 3-(4-methoxymethyl-1H-benzoimidazol-2-yl)-5-pyridin-3-yl-1H-pyrazolo[3,4-b]pyridine] |  |  |
| > 10 | 87.5 | > 100000 | 1840 | 5 | 20.1 | 191 | COCc1cccc2[nH]c(-c3n[nH]c4ncc(-c5c[nH]c6ncccc56)cc34)nc12 [Cpd 37, 3-(4-methoxymethyl-1H-benzoimidazol-2-yl)-5-(1H-pyrrolo[2,3-b]pyridin-3-yl)-1H-pyrazolo[3,4-b]pyridine] |  |  |
| 4670 | 106 |  |  |  |  | 8020 | CCNCc1cncc(-c2cnc3[nH]nc(-c4nc5c(COC)cccc5[nH]4)c3c2)c1C [Cpd 59, ethyl-{5-[3-(4-methoxymethyl-1H-benzoimidazol-2-yl)-1H-pyrazolo[3,4-b]pyridin-5-yl]-4-methyl-pyridin-3-ylmethyl}-amine] |  |  |
| 113 | 29.3 | 12100 | 2150 | 1050 | 807 | 445 | CN1CCN(c2ccc3[nH]c(-c4n[nH]c5ncc(-c6cncc(CN7CCCC7)c6)cc45)nc3c2)CC1 [Cpd 87, 3-[5-(4-methyl-piperazin-1-yl)-1H-benzoimidazol-2-yl]-5-(5-pyrrolidin-1-ylmethyl-pyridin-3-yl)-1H-pyrazolo[3,4-b]pyridine] |  |  |
|  | 11.2 |  | 826 | 386 | 428 |  | COC(=O)c1ccc2[nH]c(-c3n[nH]c4ncc(-c5cccnc5)cc34)nc2c1 [Cpd 91, 2-(5-pyridin-3-yl-1H-pyrazolo[3,4-b]pyridin-3-yl)-3H-benzoimidazole-5-carboxylic acid methyl ester] |  |  |
|  |  |  | ≥ 100000 | ≥ 100000 | ≥ 100000 |  | COC(=O)c1cccc2[nH]c(-c3n[nH]c4ncc(-c5cccnc5)cc34)nc12 [Cpd 93, 2-(5-pyridin-3-yl-1H-pyrazolo[3,4-b]pyridin-3-yl)-1H-benzoimidazole-4-carboxylic acid methyl ester] |  |  |
| ~100 | 1.6 | 7060 | 55.1 | 237 | 52.5 | ~10000 | CNCc1cncc(-c2cnc3[nH]nc(-c4nc5cc6c(cc5[nH]4)OC(F)(F)O6)c3c2)c1 [Cpd 100, {5-[3-(2,2-difluoro-5H-[1,3]dioxolo[4′,5′:4,5]benzo[1,2-d]imidazol-6-yl)-1H-pyrazolo[3,4-b]pyridin-5-yl]-pyridin-3-ylmethyl}-methyl-amine] |  |  |

The next lines start with the compound.

| Structure (SMILES) | IC50 [1] [nM] | IC50 [2] [nM] | IC50 [3] [nM] | IC50 ([4]; HeLa) [nM] | IC50 ([5]; HCT-116, HCT-116 cells) [nM] | IC50 [6] [nM] | IC50 [7] [nM] | IC50 [4] [nM] | IC50 ([5]; HCT-116 cells) [nM] |
| --- | --- | --- | --- | --- | --- | --- | --- | --- | --- |
| c1ccc2c(-c3cnc4[nH]nc(-c5nc6ccccc6[nH]5)c4c3)cncc2c1 [Cpd 1, 4-[3-(1H-benzoimidazol-2-yl)-1H-pyrazolo[3,4-b]pyridin-5-yl]-isoquinoline] | 1460 | 23.3 | 141 |  |  |  |  |  |  |
| Cc1cccc2[nH]c(-c3n[nH]c4ncc(-c5cncc6ccccc56)cc34)nc12 [Cpd 2, 4-[3-(4-methyl-1H-benzoimidazol-2-yl)-1H-pyrazolo[3,4-b]pyridin-5-yl]-isoquinoline] |  | 96.7 |  | 3090 | 1640 | 1720 |  |  |  |
| CCN(CC)Cc1cccc2[nH]c(-c3n[nH]c4ncc(-c5cncc6ccccc56)cc34)nc12 [Cpd 5, diethyl-[2-(5-isoquinolin-4-yl-1H-pyrazolo[3,4-b]pyridin-3-yl)-1H-benzoimidazol-4-ylmethyl]-amine] | 1550 |  |  | 28.9 | 30.6 | 46.7 |  |  |  |
| COCc1cccc2[nH]c(-c3n[nH]c4ncc(Br)cc34)nc12 [Cpd 11, 5-bromo-3-(4-methoxymethyl-1H-benzoimidazol-2-yl)-1H-pyrazolo[3,4-b]pyridine] | 916 | 358 |  | 1840 | 866 | 866 | ~10000 |  |  |
| CC(C)NC(=O)c1cccc2[nH]c(-c3n[nH]c4ncc(-c5cncc6ccccc56)cc34)nc12 [Cpd 18, 2-(5-isoquinolin-4-yl-1H-pyrazolo[3,4-b]pyridin-3-yl)-1H-benzoimidazole-4-carboxylic acid isopropylamide] | 378 | 3.95 | > 10000 | 35.2 | 41.5 | 64.7 | > 100 |  |  |
| CCN(CC)C(=O)c1cccc2[nH]c(-c3n[nH]c4ncc(-c5cncc6ccccc56)cc34)nc12 [Cpd 19, 2-(5-isoquinolin-4-yl-1H-pyrazolo[3,4-b]pyridin-3-yl)-1H-benzoimidazole-4-carboxylic acid diethylamide] | ~10000 | 53.4 | ~100000 | 975 | 1830 | 1570 | > 1000 |  |  |
| CC(C)(C)NC(=O)c1cccc2[nH]c(-c3n[nH]c4ncc(-c5cncc6ccccc56)cc34)nc12 [Cpd 20, 2-(5-isoquinolin-4-yl-1H-pyrazolo[3,4-b]pyridin-3-yl)-1H-benzoimidazole-4-carboxylic acid tert-butylamide] | ~10000 | 28.6 | > 10000 | 167 | 55 | 71.1 | ~1000 |  |  |
| CCCNCc1cncc(-c2cnc3[nH]nc(-c4nc5cc(N6CCN(C)CC6)ccc5[nH]4)c3c2)c1 [Cpd 85, (5-{3-[5-(4-methyl-piperazin-1-yl)-1H-benzoimidazol-2-yl]-1H-pyrazolo[3,4-b]pyridin-5-yl}-pyridin-3-ylmethyl)-propyl-amine] | 160 | 1.84 | 1840 |  |  | 412 | 280 | 692 | 774 |
| COCCNCc1cncc(-c2cnc3[nH]nc(-c4nc5cc(N6CCN(C)CC6)ccc5[nH]4)c3c2)c1 [Cpd 86, (2-methoxy-ethyl)-(5-{3-[5-(4-methyl-piperazin-1-yl)-1H-benzoimidazol-2-yl]-1H-pyrazolo[3,4-b]pyridin-5-yl}-pyridin-3-ylmethyl)-amine] | ~100 | 5.17 | 1050 |  |  | 2490 | 428 | 2290 | 2320 |
| CCCNCc1cncc(-c2cnc3[nH]nc(-c4nc5cc(OC)ccc5[nH]4)c3c2)c1 [Cpd 103, {5-[3-(5-methoxy-1H-benzoimidazol-2-yl)-1H-pyrazolo[3,4-b]pyridin-5-yl]-pyridin-3-ylmethyl}-propyl-amine] | 47.6 | 0.4 | 2160 |  |  | 39.2 | 270 | 62.3 | 33.5 |
